According to patent US10919923B2, “Organic phosphorus-based compound, and flame retardant and flame-retardant product comprising the same” (TEIJIN LIMITED, priority 2016, dated 2021):

What was measured:
Format in all cases: physicochemical
[1] = Particle size distribution by Microtrack HRA
Procedure: The volume standard median diameter (vi), the maximum particle diameter (vii) and the standard deviation (viii) can be measured by using the microtrack of Nikkiso Co., Ltd. and measurement conditions that the particles should be transparent and that the particle shape should be nonspherical.
They were measured by using the Microtrack HRA of Nikkiso Co., Ltd. The measurement conditions are that the particles should be transparent, the particle shape should be nonspherical, the refractive index of the particles should be 1.60, and the refractive index of the solvent should be 1.33.

[2] = Storage stability of processing agent (fire retardant for fibers); design: key: ◯: no agglomeration and no sedimentation are seen by visual checking; X: agglomeration and sedimentation are seen by visual checking; settings: processing agent with 30 parts compound per 100 parts polyacrylic acid ester emulsion, 25° C. for 24 hours
Procedure: After interior car sheet cloth for automobiles was coated with the following processing liquid, its flame resistance and physical properties were tested. (test cloth): Polyester 100% woven car sheet cloth (weight of 300 g/m^2) was used. (processing agent): This was prepared by adding 1.5 parts of a nonionic surfactant, 1 part of a polyacrylic acid-based thickener and 0.5 part of 25% ammonia water to 100 parts of a polyacrylic acid ester emulsion having a solid content of 45% and further adding 30 parts of each of the above organic phosphorus-based compounds (FR-1 to FR-6) under agitation. The obtained processing agent was left to stand at 25° C. for 24 hours to evaluate its storage stability based on the following criteria.
◯: no agglomeration and no sedimentation are seen by visual checking
X: agglomeration and sedimentation are seen by visual checking

[3] = Solubility in 20° C. water (visual check of dissolution); settings: distilled water at 20° C., stirred 1 minute per addition
Procedure: Dissolution was visually checked after the organic phosphorus-based compound was added little by little to 100 g of distilled water adjusted to 20° C. and stirred for 1 minute for each addition.

[4] = ΔpH value of filtrate after stirring compound in dispersant solution; settings: 1 g compound in 1% phenol type nonionic surfactant solution, |pH1−pH2|
Procedure: The ΔpH value can be measured by the following method using a commercially available pH measuring instrument. 1 g of a dispersant is added to 99 g of distilled water used for the measurement and stirred to measure the pH of the obtained aqueous solution (the measurement value is designated as pH1). After 1 g of the organic phosphorus-based compound (1) of the present invention is added to the aqueous solution and stirred for 1 minute, the organic phosphorus-based compound (1) is filtered. The pH of the obtained filtrate is measured (the measurement value is designated as pH2). The ΔpH value of the present invention is calculated from the following equation (I). ΔpH value=|pH1−pH2| (I) (vi) Volume Standard Median Diameter, (vii) Maximum Particle Diameter, (viii) Standard Deviation
This was measured by the following method using a pH measuring instrument (HORIBA pH METER D-52 of HORIBA, LTD.). 1 g of a dispersant (phenol type nonionic surfactant) was added to 99 g of distilled water used for the measurement and stirred to measure the pH of the obtained aqueous solution (the measurement value was designated as pH1). After 1 g of the organic phosphorus-based compound was added to the aqueous solution and stirred for 1 minute, the organic phosphorus-based compound was filtered. The pH of the obtained filtrate was measured (the measurement value was designated as pH2). The ΔpH value was calculated from the following equation (I). ΔpH value=|pH1−pH2| (I) (vi) Volume Standard Median Diameter, (vii) Maximum Particle Diameter, (viii) Standard Deviation

Structure (SMILES)	(vi) Volume standard median diameter [1] [μm]	(vii) Maximum particle diameter [1] [μm]	Stability [2]	(ii) Solubility in 20° C. water [3]	(v) ΔpH value [4]
O=P1(Cc2ccccc2)OCC2(CO1)COP(=O)(Cc1ccccc1)OC2 (single isomer, unassigned) [FR-1, 2,4,8,10-tetraoxa-3,9-diphosphaspiro[5.5]undecane,3,9-dibenzyl-3,9-dioxide]	18	150	◯	0.01 g/100 g of water	0.5
O=P1(Cc2ccccc2)OCC2(CO1)COP(=O)(Cc1ccccc1)OC2 (single isomer, unassigned) [FR-5, 2,4,8,10-tetraoxa-3,9-diphosphaspiro[5.5]undecane, 3,9-dibenzyl-3,9-dioxide]	40	300	◯	0.01 g/100 g of water	0.5
O=P1(Cc2ccccc2)OCC2(CO1)COP(=O)(Cc1ccccc1)OC2 (single isomer, unassigned) [FR-6, 2,4,8,10-tetraoxa-3,9-diphosphaspiro[5.5]undecane,3,9-dibenzyl-3,9-dioxide]	21	140	X	0.01 g/100 g of water	1.3
CC(c1ccccc1)P1(=O)OCC2(CO1)COP(=O)(C(C)c1ccccc1)OC2 (stereo not drawn) [FR-2, 2,4,8,10-tetraoxa-3,9-diphosphaspiro[5.5]undecane,3,9-diα-methylbenzyl-3,9-dioxide]	20	160	◯	0.01 g/100 g of water	0.6
O=P1(CCc2ccccc2)OCC2(CO1)COP(=O)(CCc1ccccc1)OC2 (stereo not drawn) [FR-3, 2,4,8,10-tetraoxa-3,9-diphosphaspiro[5.5]undecane,3,9-di(2-phenylethyl)-3,9-dioxide]	22	140	◯	0.01 g/100 g of water	0.3
O=P1(C(c2ccccc2)c2ccccc2)OCC2(CO1)COP(=O)(C(c1ccccc1)c1ccccc1)OC2 (stereo not drawn) [FR-4, 2,4,8,10-tetraoxa-3,9-diphosphaspiro[5.5]undecane, 3,9-bis(diphenylmethyl)-3,9-dioxide]	25	180	◯	0.01 g/100 g of water	0.7
